{
  "source": "ChEMBL document CHEMBL1125996",
  "about": "“Avermectin analogs with a spacer between the aglycone and the disaccharide” (1991)",
  "data": [
    {"tested_on": "Artemia salina", "test": "Compound was tested for its inhibitory activity using brine shrimp (Artemia salina) immobilization assay", "format": "functional", "units": {"IC100": "ng/mL"}, "values": [
      {"smiles": "CC[C@H](C)[C@H]1O[C@]2(CC[C@@H]1C)C[C@@H]1C[C@@H](C/C=C(\\C)[C@@H](OCOCCO[C@@H]3C[C@H](OC)[C@@H](O[C@H]4C[C@H](OC)[C@@H](O)[C@H](C)O4)[C@H](C)O3)[C@@H](C)/C=C/C=C3\\CO[C@@H]4[C@H](O)C(C)=C[C@@H](C(=O)O1)[C@]34O)O2", "IC100": 27800},
      {"smiles": "CC[C@H](C)[C@H]1O[C@]2(CC[C@@H]1C)C[C@@H]1C[C@@H](C/C=C(\\C)[C@@H](OC(=O)OCCO[C@@H]3C[C@H](OC)[C@@H](O[C@H]4C[C@H](OC)[C@@H](O)[C@H](C)O4)[C@H](C)O3)[C@@H](C)/C=C/C=C3\\CO[C@@H]4[C@H](O)C(C)=C[C@@H](C(=O)O1)[C@]34O)O2", "IC100": 41650},
      {"smiles": "CC[C@H](C)[C@H]1O[C@]2(CC[C@@H]1C)C[C@@H]1C[C@@H](C/C=C(\\C)[C@@H](OCCO[C@H]3C[C@H](OC)[C@@H](O[C@H]4C[C@H](OC)[C@@H](O)[C@H](C)O4)[C@H](C)O3)[C@@H](C)/C=C/C=C3\\CO[C@@H]4[C@H](O)C(C)=C[C@@H](C(=O)O1)[C@]34O)O2", "IC100": 1730},
      {"smiles": "CC[C@H](C)[C@H]1O[C@]2(CC[C@@H]1C)C[C@@H]1C[C@@H](C/C=C(\\C)[C@@H](OCOCCO[C@H]3C[C@H](OC)[C@@H](O[C@H]4C[C@H](OC)[C@@H](O)[C@H](C)O4)[C@H](C)O3)[C@@H](C)/C=C/C=C3\\CO[C@@H]4[C@H](O)C(C)=C[C@@H](C(=O)O1)[C@]34O)O2", "IC100": 27800},
      {"smiles": "CC[C@H](C)[C@H]1O[C@]2(CC[C@@H]1C)C[C@@H]1C[C@@H](C/C=C(\\C)[C@@H](OCCO[C@@H]3C[C@H](OC)[C@@H](O[C@H]4C[C@H](OC)[C@@H](O)[C@H](C)O4)[C@H](C)O3)[C@@H](C)/C=C/C=C3\\CO[C@@H]4[C@H](O)C(C)=C[C@@H](C(=O)O1)[C@]34O)O2", "IC100": 1730},
      {"smiles": "CC[C@H](C)[C@H]1O[C@]2(C=C[C@@H]1C)C[C@@H]1C[C@@H](C/C=C(\\C)[C@@H](O[C@H]3C[C@H](OC)[C@@H](O[C@H]4C[C@H](OC)[C@@H](O)[C@H](C)O4)[C@H](C)O3)[C@@H](C)/C=C/C=C3\\CO[C@@H]4[C@H](O)C(C)=C[C@@H](C(=O)O1)[C@]34O)O2", "note": "[ABAMECTIN COMPONENT B1A]", "IC100": 430}
    ]},
    {"tested_on": "Artemia salina", "test": "Compound was tested for its inhibitory activity using brine shrimp (Artemia salina) immobilization assay; highest level tested, showed <100% activity", "format": "functional", "units": {"IC100": "ng/mL"}, "values": [
      {"smiles": "CC[C@H](C)[C@H]1O[C@]2(CC[C@@H]1C)C[C@@H]1C[C@@H](C/C=C(\\C)[C@@H](OC(=O)OCCO[C@H]3C[C@H](OC)[C@@H](O[C@H]4C[C@H](OC)[C@@H](O)[C@H](C)O4)[C@H](C)O3)[C@@H](C)/C=C/C=C3\\CO[C@@H]4[C@H](O)C(C)=C[C@@H](C(=O)O1)[C@]34O)O2", "IC100": ">55500"}
    ]}
  ]
}
